Results as given in US20140066385A1, “METHOD FOR TREATING CANCER BY COMBINED USE OF DRUGS” (Astellas Pharma Inc., priority 2011, published 2014).

Molecular target: T1, purified pig brain-derived tubulin (Sus scrofa, UniProt P02550+P02554)
T1 construct: purified pig brain-derived tubulin (final concentration: 2 mg/mL); purchased Cytoskeleton, Inc. (Denver, Colo., USA); host or cells: pig brain (tissue-purified)
Assay: Example 7: fluorescence-based assay of tubulin polymerization reaction
Type: biochemical
Procedure: S-nitroso-N-acetyl-D,L-penicillamine (SNAP), which is a NO donor, was purchased from Cayman Chemical Co. (Ann Arbor, Mich., USA) and used. A tubulin polymerization analysis kit was purchased from Cytoskeleton, Inc. (Denver, Colo., USA) and used. For paclitaxel, a paclitaxel included in the analysis kit was used as paclitaxel. Docetaxel was purchased from Sigma-Aldrich Co. (St. Louis, Mo., USA) and was used as docetaxel.
A fluorescence-based assay of tubulin polymerization reaction was carried out according to the manufacturer's instruction of the kit. That is, purified pig brain-derived tubulin (final concentration: 2 mg/mL) and SNAP (final concentration: 200 or 500 μmol/L) were incubated at room temperature for 15 minutes or longer in the buffer solution included in the kit. Subsequently, paclitaxel (final concentration: 3 μmmol/L) or docetaxel (final concentration: 1 μmol/L), and […] (final concentration: 1 mmol/L) were added to this buffer mixture, and then was incubated for 60 minutes at 37° C. During this incubation, the fluorescence intensity (measurement wavelength: excitation 350 nm/fluorescence 435 nm) was measured every one minute by using a microplate reader (Spectramax, Molecular Devices, LLC, Sunnyvale, Calif., USA). The value of fluorescence intensity was expressed as a percentage relative to the SNAP and taxane-untreated group by using the value obtained 60 minutes after the initiation of the reaction, which corresponded to the equilibrium steady-state phase, and the average value for three experiments was taken as the value.
The results are expressed as the mean value (Mean)±standard error (SEM) of five independent experiments. A comparison between a paclitaxel- or docetaxel-treated group and an untreated group was carried out by an unpaired statistical test (Student's t-test) of the difference between two groups. A comparison between a SNAP-untreated group (control group) and SNAP-treated groups (200 μmol/L and 500 μmol/L) in the presence or absence of the taxane-family drugs was carried out by Dunnett's multiple comparison test. A difference value of less than 5% was considered to be statistically significant. For the data processing, Graphpad Prism version 5.03 was used.

[1] = SNAP 200 or 500 μmol/L, 60 minutes

T1 sequence (P02554 whole entry): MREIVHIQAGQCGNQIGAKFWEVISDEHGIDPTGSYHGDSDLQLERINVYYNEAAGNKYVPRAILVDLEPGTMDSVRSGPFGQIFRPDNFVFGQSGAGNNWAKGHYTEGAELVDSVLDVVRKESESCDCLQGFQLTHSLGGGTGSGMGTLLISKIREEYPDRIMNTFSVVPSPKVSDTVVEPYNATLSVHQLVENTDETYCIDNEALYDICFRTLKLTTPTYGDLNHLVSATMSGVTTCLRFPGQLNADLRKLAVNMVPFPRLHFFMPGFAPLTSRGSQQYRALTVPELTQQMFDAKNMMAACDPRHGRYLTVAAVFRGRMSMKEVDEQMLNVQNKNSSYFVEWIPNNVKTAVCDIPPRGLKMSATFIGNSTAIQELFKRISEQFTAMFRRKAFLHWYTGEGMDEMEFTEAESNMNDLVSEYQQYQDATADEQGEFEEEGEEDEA
T1 sequence (P02550 whole entry): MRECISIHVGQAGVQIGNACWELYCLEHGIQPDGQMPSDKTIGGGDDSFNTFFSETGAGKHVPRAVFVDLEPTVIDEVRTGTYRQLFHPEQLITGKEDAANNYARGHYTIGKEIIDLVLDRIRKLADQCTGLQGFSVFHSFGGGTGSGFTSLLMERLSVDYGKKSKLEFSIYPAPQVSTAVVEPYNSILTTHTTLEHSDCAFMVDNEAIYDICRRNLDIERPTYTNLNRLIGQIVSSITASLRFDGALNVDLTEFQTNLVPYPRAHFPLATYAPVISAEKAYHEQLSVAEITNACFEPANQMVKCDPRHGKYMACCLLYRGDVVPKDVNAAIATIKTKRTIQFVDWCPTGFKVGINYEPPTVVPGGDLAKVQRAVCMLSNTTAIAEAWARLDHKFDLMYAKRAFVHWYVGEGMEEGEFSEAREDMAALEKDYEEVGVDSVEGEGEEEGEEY

action of SNAP on the spontaneous tubulin polymerization reaction (SNAP 200 or 500 μmol/L, absence of taxanes, 60 minutes) | action of SNAP on the tubulin polymerization reaction promoted by docetaxel [1] | action of SNAP on the tubulin polymerization reaction promoted by paclitaxel [1] | tubulin polymerization (fluorescence intensity) as compared with the taxane-untreated group (docetaxel final concentration 1 μmol/L, 60 minutes after initiation, P<0.001) | SMILES
significantly suppressed | significantly suppressed | significantly suppressed |  | CC(=O)NC(C(=O)O)C(C)(C)SN=O (racemic) [SNAP, S-nitroso-N-acetyl-D,L-penicillamine]
 |  |  | 184.1% | CC(=O)O[C@@]12CO[C@@H]1C[C@H](O)[C@@]1(C)C(=O)[C@H](O)C3=C(C)[C@@H](OC(=O)[C@H](O)[C@@H](NC(=O)OC(C)(C)C)c4ccccc4)C[C@@](O)([C@@H](OC(=O)c4ccccc4)[C@H]21)C3(C)C [docetaxel]
